Results from patent publication US5525595A, “3- or 4-glycosyloxybenzopyran derivative and antiallergic agent containing the derivative as active ingredient” (priority 1993, dated 1996).

Legend:
[1] = system: homologous passive cutaneous anaphylaxis (PCA) reaction; experiment: Effect on homologous passive cutaneous anaphylaxis (PCA) reaction in rats; type: in vivo, rats (Male wistar rats); conditions: for Inhibition (%) of PCA reaction, compared compounds: Comparative Test Example 1, Table 5, compared compounds of EP-A-0598117; for inhibition in vivo at 100 mg/kg: Rattus norvegicus, 0.5 h
Method: This experimental animal model is caused by immediate type allergic reaction, namely, antigen-antibody reaction. In the following, the method of this pharmacological test will be explained.
Method: Male wistar rats (9 weeks old) were intradermally administered 0.05 ml of anti-serum against trinitrophenylated ascaris (TNP-As) into two sites on the shaved dorsal skin. 48 hours later, 3-glycosyloxybenzopyran derivatives and 4-glycosyloxybenzopyran derivatives (test compounds) suspended in 0.5% sodium carboxymethylcellulose (CMCNa) were given orally at a dose of 100 mg/kg to the animals. 1 hour after administration of Test compounds, the animals were induced anaphylaxis by injection of saline (1 ml) dissolving 5 mg of Evans Blue and 1 mg of TNP-As into the tail vein of the animals. 30 minutes after induction of anaphylaxis, animals were anesthetized by ether and killed by bleeding, and were flayed dorsal skin. The leakage of dye was assessed by measuring the diameter (mean of shortest and longest diameter) of the blue spot on the inside surface of dorsal skin. As vehicle control group, only 0.5% CMCNa solution was administered orally, and as positive control group, Tranilast suspended in 0.5% CMCNa were administered orally at a dose of 100 mg/kg to the animals with the same method as the test compounds groups. Each experimental group consisted of 5 rats. [formula] In equation 1: A: leakage of dye in vehicle control group
B: leakage of dye in test compound group or in positive control group
The anti-allergic activity of the compounds of the present invention were compared with that of analogous compounds which were published in the Patent (EP-A-0598117) by PCA reaction. This pharmacological test was performed according to the method described in Test Example 1.

[2] = system: contact dermatitis induced by picryl chloride; experiment: Effect on contact dermatitis induced by picryl chloride in mice (delayed type hypersensitization); type: in vivo
Method: The delayed type hypersensitization is inhibited by steroid, but can not be effected by known anti-allergic agents. In the following, the method of the pharmacological test will be explained.
Method: Mice, shaved their abdominal skin on previous day, were immunized by applying 0.1 ml of acetone containing 7 mg of picryl chloride to the skin of the abdomen. 7 days after immunization, the thickness of the ear was measured with a dial thickness gauge, then mice were challenged by painting 5 μl of 1% picryl chloride olive oil solution to each side skin of left ear. 24 hours after challenge, the thickness of the left ear was measured again and the increase (%) of thickness was calculated according to equation 2. The compounds of the present invention (test compounds) suspended in 0.5% CMCNa were forcibly administered orally at a dose of 100 mg/kg at 1 hour before and 16 hours after challenge. As vehicle control group, only 0.5% CMCNa solution were administered orally, and as positive control group, Prednisolone, steroid hormone, and Tranilast were administered orally at the doses of 10 mg/kg and 100 mg/kg, respectively.
Increase (%)=(A-B)/B×100 (Equation 2)
A: thickness of the ear at 24 hours after challenge
B: thickness of the ear before challenge
Inhibition(%)=(C-D)/C×100 (equation 3)
C: The increase (%) in vehicle control group
D: The increase (%) in test compounds group or positive control group

[3] = system: airway resistance in experimental asthma model; experiment: Effect on experimental asthma model in guinea pigs; type: in vivo, guinea pigs (Male hadley); conditions: 100 mg/kg oral, OVA challenge, guinea pigs, Table 7; for inhibition in vivo at 100 mg/kg: Cavia porcellus
Method: The asthma is typical allergic disease and we carried out this pharmacological test by well known experimental asthma model in guinea pigs in order to confirm that the compounds of the present invention suppress the asthma. In the following, the method of the pharmacological test will be explained.
Method: Male hadley guinea pigs were immunized by intraperitoneal injection of saline (1 ml) containing 5 mg of ovalbumine (OVA) three times at interval of one week. 2 weeks after final immunization, the animals were challenged by inhalation of 1% OVA-saline solution for 1 minute and then the airway resistance of the animals were measured for 30 minutes with PULMOS-1 (Medical Interface Project Station Inc.) after the inhalation. The compounds of the present invention (test compounds) suspended in 0.5% CMCNa were given orally at a dose of 100 mg/kg. As positive control group, Disodium Cromoglicate (DSCG), well known anti-allergic agent, in saline were injected at a dose of 20 mg/kg into the vein of the animals. As vehicle control group, only 0.5% CMCNa solution were given orally. The inhibition (%) of the airway resistance in vehicle control group was calculated according to equation 5 and the result was shown in Table 7. Each experimental group consisted of 5 guinea pigs. [formula] In equation 5: A: Maximum airway resistance in vehicle control group
B: Maximum airway resistance in test compounds group or positive control group

[4] = 100 mg/kg oral, 1 hour before antigen, rats, Table 3
[5] = Mus musculus, 100 mg/kg oral, ear thickness 24 hours after challenge, Table 6, read-out: Inhibition (%) against the increase of ear thickness

| SMILES | inhibition in vivo at 100 mg/kg [1, 4] [%] | inhibition in vivo at 100 mg/kg [2, 5] [%] | inhibition in vivo at 100 mg/kg [3] [%] | also measured |
| --- | --- | --- | --- | --- |
| COc1ccc2c(O)c(OC)c(=O)oc2c1 [Compared compound 1, 4-hydroxy-3,7-dimethoxy-2H-1-benzopyran-2-one, reference compound] | – | – | – | Inhibition (%) of PCA reaction, compared compounds [1]: 28.9% |
| CCCCCCCCOc1ccc2c(O)c(OC)c(=O)oc2c1 [Compared compound 2, 3-methoxy-4-hydroxy-7-octyloxy-2H-1-benzopyran-2-one, reference compound] | – | – | – | Inhibition (%) of PCA reaction, compared compounds [1]: 32.8% |
| COc1ccc2c(OC)c(O)c(=O)oc2c1 [Compared compound 3, 3-hydroxy-4,7-dimethoxy-2H-1-benzopyran-2-one, reference compound] | – | – | – | Inhibition (%) of PCA reaction, compared compounds [1]: 30.6% |
| CCCCCCCCCCOc1ccc2c(OC)c(O)c(=O)oc2c1 [Compared compound 4, 3-hydroxy-4-methoxy-7-decyloxy-2H-1-benzopyran-2-one, reference compound] | – | – | – | Inhibition (%) of PCA reaction, compared compounds [1]: 26.4% |
| C[C@]12C=CC(=O)C=C1CC[C@@H]1[C@@H]2[C@@H](O)C[C@@]2(C)[C@H]1CC[C@]2(O)C(=O)CO [Prednisolone, reference compound] | – | – | – | inhibition in vivo at 10 mg/kg ([2]; Mus musculus, po, 24 h, read-out: Inhibition (%) against the increase of ear thickness): 63.5% |
| COc1ccc(/C=C/C(=O)Nc2ccccc2C(=O)O)cc1OC [Tranilast, reference compound] | 56.2 | 11.5 | – | inhibition of delayed type hypersensitization ([2]; 100 mg/kg oral, in words): did not inhibit delayed type hypersensitization |
| COc1ccc2c(OCc3ccccc3)c(O[C@@H]3O[C@H](COC(C)=O)[C@@H](OC(C)=O)[C@H](OC(C)=O)[C@H]3OC(C)=O)c(=O)oc2c1 [compound 3, 7-methoxy-4-benzyloxy-3-(tetra-O-acetyl-β-D-glucopyranosyloxy)-2H-1-benzopyran-2-one] | 43.5 | 40.5 | 40 | – |
| COc1ccc2c(O)c(O[C@@H]3O[C@H](COC(C)=O)[C@@H](OC(C)=O)[C@H](OC(C)=O)[C@H]3OC(C)=O)c(=O)oc2c1 [compound 4, 7-methoxy-4-hydroxy-3-(tetra-O-acety-β-D-glucopyranosyloxy)-2H-1-benzopyran-2-one] | 40.2 | 46.3 | 48.3 | – |
| COc1ccc2c(O)c(O[C@@H]3O[C@H](CO)[C@@H](O)[C@H](O)[C@H]3O)c(=O)oc2c1 [compound 5, 7-methoxy-4-hydroxy-3-(β-D-glucopyranosyloxy)-2H-1-benzopyran-2-one] | 48.7 | 51.2 | 62 | – |
| COc1ccc2c(OCc3ccccc3)c(O[C@@H]3O[C@H](COC(C)=O)[C@@H](OC(C)=O)[C@H](OC(C)=O)[C@@H]3OC(C)=O)c(=O)oc2c1 [compound 6, 7-methoxy-4-benzyloxy-3-(tetra-O-acetyl-β-D-mannopyranosyloxy)-2H-1-benzopyran-2-one] | – | – | – | Inhibition (%) of PCA reaction [1, 4]: 42.3%; Inhibition (%) of the airway resistance [3]: 38.5%; Inhibition (%) against the increase of ear thickness ([2]; 100 mg/kg oral, ear thickness 24 hours after challenge, Table 6): 41.9% |
| COc1ccc2c(OCc3ccccc3)c(O[C@@H]3O[C@H](COC(C)=O)[C@H](OC(C)=O)[C@H](OC(C)=O)[C@H]3OC(C)=O)c(=O)oc2c1 [compound 7, 7-methoxy-4-benzyloxy-3-(tetra-O-acetyl-β-D-galactopyranosyloxy)-2H-1-benzopyran-2-one] | 41.1 | 40.3 | 43.7 | – |
| COc1ccc2c(O)c(O[C@H]3O[C@H](COC(C)=O)[C@@H](OC(C)=O)[C@H](OC(C)=O)[C@@H]3OC(C)=O)c(=O)oc2c1 [compound 8, 7-methoxy-4-hydroxy-3-(tetra-O-acetyl-α-D-mannopyranosyloxy)-2H-1-benzopyran-2-one] | 45.2 | 45.3 | 46.7 | – |
| COc1ccc2c(O)c(O[C@@H]3O[C@H](COC(C)=O)[C@H](OC(C)=O)[C@H](OC(C)=O)[C@H]3OC(C)=O)c(=O)oc2c1 [compound 9, 7-methoxy-4-hydroxy-3-(tetra-O-acetyl-β-D-galactopyranosyloxy)-2H-1-benzopyran-2-one] | 51.3 | 50.1 | 58.4 | – |
| COc1ccc2c(O)c(O[C@H]3O[C@H](CO)[C@@H](O)[C@H](O)[C@@H]3O)c(=O)oc2c1 [compound 10, 7-methoxy-4-hydroxy-3-(α-D-mannopyranosyloxy)-2H-1-benzopyran-2-one] | 50.3 | 47.5 | 49 | – |
| COc1ccc2c(O)c(O[C@@H]3O[C@H](CO)[C@H](O)[C@H](O)[C@H]3O)c(=O)oc2c1 [compound 11, 7-methoxy-4-hydroxy-3-(β-D-galactopyranosyloxy)-2H-1-benzopyran-2-one] | 52.1 | 53.3 | 63.3 | – |
| CC(=O)Oc1ccc2c(OCc3ccccc3)c(O[C@@H]3O[C@H](COCc4ccccc4)[C@@H](OCc4ccccc4)[C@H](OCc4ccccc4)[C@H]3OCc3ccccc3)c(=O)oc2c1 [compound 12, 4-benzyloxy-7-acetoxy-3-(tetra-O-benzyl-β-D-glucopyranosyloxy)-2H-1-benzopyran-2-one] | 41.3 | 40.8 | 39.2 | – |
| CC(=O)Oc1ccc2c(O)c(O[C@@H]3O[C@H](CO)[C@@H](O)[C@H](O)[C@H]3O)c(=O)oc2c1 [compound 13, 7-acetoxy-4-hydroxy-3-(β-D-glucopyranosyloxy)-2H-1-benzopyran-2-one] | 58.7 | 50.4 | 57.7 | – |
| O=c1oc2cc(O)ccc2c(O)c1O[C@@H]1O[C@H](CO)[C@@H](O)[C@H](O)[C@H]1O [compound 14] | 50.2 | 47.5 | 52.3 | – |
| CCCCOc1ccc2c(O)c(O[C@@H]3O[C@H](CO)[C@@H](O)[C@H](O)[C@H]3O)c(=O)oc2c1 [compound 15] | 60.4 | 58.5 | 73.6 | – |
| CCCCCCCCOc1ccc2c(O)c(O[C@@H]3O[C@H](CO)[C@@H](O)[C@H](O)[C@H]3O)c(=O)oc2c1 [compound 16] | 62.6 | 64 | 75.8 | – |
| CCCCCCCCCCCCOc1ccc2c(O)c(O[C@@H]3O[C@H](CO)[C@@H](O)[C@H](O)[C@H]3O)c(=O)oc2c1 [compound 17] | 59.2 | 59.2 | 75 | – |
| CC(C)Oc1ccc2c(O)c(O[C@@H]3O[C@H](CO)[C@@H](O)[C@H](O)[C@H]3O)c(=O)oc2c1 [compound 18] | 56.6 | 56.9 | 70.3 | – |
